# Results published in patent publication US20140205537A1, “LRRK2 INHIBITORS” (ZENOBIA THERAPEUTICS, INC., priority 2011, published 2014).
# Target: T1, G2019S LRRK2 (Homo sapiens, UniProt Q5S007, G2019S)
# Assay: G2019S LRRK2 inhibition (Invitrogen SelectScreen / TR-FRET biochemical assay)
# Design: The protein construct used in the assay is GST tagged 969-2527; GST; purchased Invitrogen
# Conditions: @ 0.1 μM
# Description: IC50s were determined using Invitrogen's SelectScreen® Profiling Service for wild type and LRRK2 G2019S. The test compounds were screened in 1% DMSO (final) in the well.
# a) % inhibition is measured at one concentration
# b) a 10-point titration is run to ensure the kinase is inhibited within an expected IC50 range
# Biochemical Assay Protocol:
# Compound potency against wild-type and G2019S LRRK2 is measured via TR-FRET. The IC50, the amount of inhibitor required to inhibitor 50% of the protein under the given assay conditions, is determined by varying the amount of compound (500-0.001 uM) by serial dilution with 12-data points per compound, in duplicate. The substrate (Fluorescein-GAGRLGRDKYKTLRQIRQ) and ATP is fixed at 0.8 uM and 57 uM (KmATP), respectively. All assays are run in Corning low volume […] round bottomed plates. The assay is run in 50 mM Tris-HCl pH8.5, 10 mM MgCl2, 0.01% Brij-35, 1 mM EGTA, 2 mMDTT. The TR-FRET assay is an end-point assay where the reaction with protein, substrate, inhibitor and ATP is incubated for 1 hour at room temperature. The compound is pre-incubated with the protein and substrate prior to initiating the reaction with ATP. Phospho-transfer is detected using a Terbium labeled anti-pLRRKtide that binds to phosphorylated substrate creating FRET transfer when excited at 340 nm. Emissions signals are taken for terbium and FRET induced fluorescein at 495 nm and 520 nm, respectively, using a Biotek Synergy 2 spectrophotometer. The dose response is determined by plotting the emission ratio of 520/495 against the log of the inhibitor concentration. The maximum inhibition and non-inhibition controls is run on all plates. Staurosporine is used as the positive inhibition control and DMSO is used as the negative point control. A 12-point dose curve of Staurosporine is run as a dosing control. The IC50 is determined to be the inhibitor concentration at which 50% inhibition is achieved. The protein construct used in the assay is GST tagged 969-2527. The protein is commercially available from Invitrogen.
# Alternatively, compounds of formulas (II), (I), (I-A), (I-B), (I-C), (I-D), (I-D-1), (I-D-2), (I-E), (I-F), (I-G), (I-H), (I-I), (I-I-1), (I-I-2), (I-J), (I-K), (I-L), (I-M), (I-N), (I-Z-1), (I-Z-2), (I-Z-2-a), (I-Z-2-b), (I-Z-2-c), (I-Z-2-d), (I-Z-3-a), (I-Z-3-b), (I-Z-3-c), or (I-Z-3-d) were tested using Invitrogen's SelectScreen® Profiling Service for LRRK2 G2019S.
row,inhibition at 0.1 µM [%],SMILES
1,-5,"O=C1Nc2ccccc2/C1=C\c1nc2ccccc2s1 [Compound 7, (3E)-3-(1,3-benzothiazol-2-ylmethylene)indolin-2-one]"
2,22,"Cc1cc(/C=C2\C(=O)Nc3ccccc32)[nH]n1 [Compound 1, (3Z)-3-[(3-methyl-1H-pyrazol-5-yl)methylene]indolin-2-one]"

# Same assay, conditions: @ 10 μM
row,inhibition at 10 µM [%],SMILES
1,11,"O=C1Nc2ccccc2/C1=C\c1nc2ccccc2o1 [Compound 9, (3E)-3-(1,3-benzoxazol-2-ylmethylene)indolin-2-one]"
2,30,"O=C1Nc2ccccc2/C1=C/c1cc2cccnc2[nH]1 [Compound 5, (3Z)-3-(1H-pyrrolo[2,3-b]pyridin-2-ylmethylene)indolin-2-one]"

# Same assay, conditions: numeric value
row,IC50 [nM],SMILES
1,41.2,"Cc1ncc(/C=C2\C(=O)Nc3ccc(OC(F)(F)F)cc32)[nH]1 [Compound 11, (3Z)-3-[(2-methyl-1H-imidazol-5-yl)methylene]-5-(trifluoromethoxy)indolin-2-one]"
2,181,"Cc1cnc(/C=C2\C(=O)Nc3ccccc32)[nH]1 [Compound 2, (3Z)-3-[(5-methyl-1H-imidazol-2-yl)methylene]indolin-2-one]"
3,872,"O=C1Nc2ccccc2/C1=C\c1cnc2ccccc2c1 [Compound 8, (3E)-3-(3-quinolylmethylene)indolin-2-one]"
4,38.7,"COCc1ncc(/C=C2\C(=O)Nc3ccc(OC)cc32)[nH]1 [Compound 17, (3Z)-5-methoxy-3-[[2-(methoxymethyl)-1H-imidazol-5-yl]methylene]indolin-2-one]"
5,3.1,"CCOc1ccc2c(c1)/C(=C/c1cnc(C)[nH]1)C(=O)N2 [Compound 13, (3Z)-5-ethoxy-3-[(2-methyl-1H-imidazol-5-yl)methylene]indolin-2-one]"
6,16.4,"Cc1ncc(/C=C2\C(=O)Nc3ccc(Cl)cc32)[nH]1 [Compound 10, (3Z)-5-chloro-3-[(2-methyl-1H-imidazol-5-yl)methylene]indolin-2-one]"
7,6.9,"COc1ccc2c(c1)/C(=C/c1cnc(C)[nH]1)C(=O)N2 [Compound 4, (3Z)-5-methoxy-3-[(2-methyl-1H-imidazol-5-yl)methylene]indolin-2-one]"
8,125,"Cc1ncc(/C=C2\C(=O)Nc3ccc(S(C)(=O)=O)cc32)[nH]1 [Compound 15, (3Z)-3-[(2-methyl-1H-imidazol-5-yl)methylene]-5-methylsulfonyl-indolin-2-one]"
9,127,"COc1ccc2c(c1)NC(=O)/C2=C\c1cnc(C)[nH]1 [Compound 6, (3Z)-6-methoxy-3-[(2-methyl-1H-imidazol-5-yl)methylene]indolin-2-one]"
10,3.5,"CCc1ncc(/C=C2\C(=O)Nc3ccc(OC)cc32)[nH]1 [Compound 16, (3Z)-3-[(2-ethyl-1H-imidazol-5-yl)methylene]-5-methoxy-indolin-2-one]"
11,38,"Cc1ncc(/C=C2\C(=O)Nc3ccc(F)cc32)[nH]1 [Compound 3, (3Z)-5-fluoro-3-[(2-methyl-1H-imidazol-5-yl)methylene]indolin-2-one]"

# Target: T1, G2019S LRRK2
# Assay: DiscoveRx KINOMEscan binding constant (Kd)
# Design: purchased DiscoveRx (KINOMEscan service); host or cells: E. coli BL21-derived host (T7 phage) or HEK-293
# Conditions: class symbol
# Description: Compounds of formulas (II), (I), (I-A), (I-B), (I-C), (I-D), (I-D-1), (I-D-2), (I-E), (I-F), (I-G), (I-H), (I-I), (I-I-1), (I-I-2), (I-J), (I-K), (I-L), (I-M), (I-N), (I-Z-1), (I-Z-2), (I-Z-2-a), (I-Z-2-b), (I-Z-2-c), (I-Z-2-d), (I-Z-3-a), (I-Z-3-b), (I-Z-3-c), or (I-Z-3-d) were tested using DiscoveRx's KINOMEscan™ technology to measure a binding constant (Kd) to wild type and G2019S LRRK2. Kinase-tagged T7 phage strains were prepared in an E. coli host derived from the BL21 strain. E. coli were grown to log-phase and infected with T7 phage and incubated with shaking at 32° C. until lysis. The lysates were centrifuged and filtered to remove cell debris. The remaining kinases were produced in HEK-293 cells and subsequently tagged with DNA for qPCR detection. Streptavidin-coated magnetic beads were treated with biotinylated small molecule ligands for 30 minutes at room temperature to generate affinity resins for kinase assays. The liganded beads were blocked with excess biotin and washed with blocking buffer (SeaBlock (Pierce), 1% BSA, 0.05% Tween 20, 1 mM DTT) to remove unbound ligand and to reduce non-specific binding. Binding reactions were assembled by combining kinases, liganded affinity beads, and test compounds in 1× binding buffer (20% SeaBlock, 0.17×PBS, 0.05% Tween 20, 6 mM DTT). All reactions were performed in polystyrene 96-well plates in a final volume of 0.135 ml. The assay plates were incubated at room temperature with shaking for 1 hour and the affinity beads were washed with wash buffer (lx PBS, 0.05% Tween 20). The beads were then re-suspended in elution buffer (lx PBS, 0.05% Tween 20, 0.5 μM non-biotinylated affinity ligand) and incubated at room temperature with shaking for 30 minutes. The kinase concentration in the eluates was measured by qPCR. An 11-point 3-fold serial dilution of each test compound was prepared in 100% DMSO at 100× final test concentration and subsequently diluted to 1× in the assay (final DMSO concentration=[…]). Most Kds were determined using a compound top concentration=30,000 nM.
# Target sequence in this assay (Q5S007 whole entry G2019S): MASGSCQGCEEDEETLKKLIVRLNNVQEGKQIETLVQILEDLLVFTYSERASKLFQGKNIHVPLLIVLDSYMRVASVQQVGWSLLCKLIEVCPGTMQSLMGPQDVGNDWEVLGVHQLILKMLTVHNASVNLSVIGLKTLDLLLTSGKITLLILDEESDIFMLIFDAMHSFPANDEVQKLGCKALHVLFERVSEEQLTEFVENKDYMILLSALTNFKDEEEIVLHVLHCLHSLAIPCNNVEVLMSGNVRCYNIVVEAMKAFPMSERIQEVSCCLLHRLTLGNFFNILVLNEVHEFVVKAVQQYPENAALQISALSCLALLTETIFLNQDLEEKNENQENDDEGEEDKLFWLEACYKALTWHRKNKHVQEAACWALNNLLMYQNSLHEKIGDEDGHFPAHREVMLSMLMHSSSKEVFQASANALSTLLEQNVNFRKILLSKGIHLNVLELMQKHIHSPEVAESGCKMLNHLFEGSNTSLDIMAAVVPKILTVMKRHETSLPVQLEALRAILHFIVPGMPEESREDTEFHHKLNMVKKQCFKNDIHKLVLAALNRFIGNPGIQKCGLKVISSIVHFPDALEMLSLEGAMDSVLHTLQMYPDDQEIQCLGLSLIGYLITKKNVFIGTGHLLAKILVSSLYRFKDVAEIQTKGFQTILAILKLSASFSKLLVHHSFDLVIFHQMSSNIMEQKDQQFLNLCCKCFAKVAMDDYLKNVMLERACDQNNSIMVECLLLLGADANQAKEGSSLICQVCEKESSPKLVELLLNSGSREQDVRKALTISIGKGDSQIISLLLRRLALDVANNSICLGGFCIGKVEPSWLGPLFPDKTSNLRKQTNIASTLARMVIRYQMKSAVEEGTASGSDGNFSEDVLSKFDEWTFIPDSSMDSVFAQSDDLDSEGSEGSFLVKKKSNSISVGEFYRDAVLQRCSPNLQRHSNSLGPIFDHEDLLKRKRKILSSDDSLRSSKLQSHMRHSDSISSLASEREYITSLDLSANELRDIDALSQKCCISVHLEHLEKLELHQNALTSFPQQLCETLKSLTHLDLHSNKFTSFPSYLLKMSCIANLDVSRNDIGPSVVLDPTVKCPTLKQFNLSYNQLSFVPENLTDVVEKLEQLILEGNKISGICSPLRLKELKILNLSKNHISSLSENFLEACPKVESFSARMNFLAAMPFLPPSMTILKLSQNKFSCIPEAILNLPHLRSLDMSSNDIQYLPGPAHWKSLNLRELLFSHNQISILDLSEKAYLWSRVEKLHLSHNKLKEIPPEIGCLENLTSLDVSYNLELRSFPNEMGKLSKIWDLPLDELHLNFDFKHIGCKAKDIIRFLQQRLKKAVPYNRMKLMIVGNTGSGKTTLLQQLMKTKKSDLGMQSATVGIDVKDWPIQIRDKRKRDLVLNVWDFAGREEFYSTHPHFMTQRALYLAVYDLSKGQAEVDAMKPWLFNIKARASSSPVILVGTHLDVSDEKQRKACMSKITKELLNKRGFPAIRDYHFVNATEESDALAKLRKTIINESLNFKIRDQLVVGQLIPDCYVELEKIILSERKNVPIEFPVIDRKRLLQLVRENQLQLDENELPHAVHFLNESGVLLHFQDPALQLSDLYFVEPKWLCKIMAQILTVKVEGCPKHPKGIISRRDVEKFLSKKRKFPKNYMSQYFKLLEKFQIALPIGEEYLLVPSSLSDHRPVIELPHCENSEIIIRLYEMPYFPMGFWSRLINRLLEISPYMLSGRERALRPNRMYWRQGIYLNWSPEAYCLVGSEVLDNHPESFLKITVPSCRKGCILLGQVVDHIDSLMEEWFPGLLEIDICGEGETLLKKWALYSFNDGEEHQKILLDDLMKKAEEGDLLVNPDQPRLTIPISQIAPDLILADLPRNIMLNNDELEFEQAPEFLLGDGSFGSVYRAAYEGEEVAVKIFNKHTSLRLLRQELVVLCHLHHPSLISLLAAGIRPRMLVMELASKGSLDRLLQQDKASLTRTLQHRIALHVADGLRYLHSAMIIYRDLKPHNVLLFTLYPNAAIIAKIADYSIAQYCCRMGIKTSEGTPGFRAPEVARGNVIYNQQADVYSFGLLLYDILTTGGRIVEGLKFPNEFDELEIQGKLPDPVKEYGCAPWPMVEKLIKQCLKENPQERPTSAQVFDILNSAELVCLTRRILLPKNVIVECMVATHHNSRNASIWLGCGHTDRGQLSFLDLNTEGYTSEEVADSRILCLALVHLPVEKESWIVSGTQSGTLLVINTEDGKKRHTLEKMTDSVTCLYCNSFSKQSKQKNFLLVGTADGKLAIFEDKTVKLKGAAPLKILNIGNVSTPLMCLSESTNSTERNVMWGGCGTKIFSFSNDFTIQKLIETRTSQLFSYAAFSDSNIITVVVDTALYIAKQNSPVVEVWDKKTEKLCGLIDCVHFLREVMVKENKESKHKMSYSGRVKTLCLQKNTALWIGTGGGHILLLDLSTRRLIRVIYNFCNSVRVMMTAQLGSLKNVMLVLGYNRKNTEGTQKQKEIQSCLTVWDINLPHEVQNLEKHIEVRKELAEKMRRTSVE
row,Kd [nM],SMILES
1,≥ 1000,"CC(C)Oc1ccc2c(c1F)/C(=C/c1cnc(N3CCOCC3)[nH]1)C(=O)N2 [Compound 38, (3Z)-4-fluoro-5-isopropoxy-3-[(2-morpholino-1H-imidazol-5-yl)methylene]indolin-2-one]"
2,≥ 1000,"CCc1nnc(/C=C2\C(=O)Nc3ccc(OC)cc32)[nH]1 [Compound 25, (3Z)-3-[(5-ethyl-4H-1,2,4-triazol-3-yl)methylene]-5-methoxy-indolin-2-one]"

# Same assay, conditions: numeric value
row,Kd [nM],SMILES
1,12500,"CC(C)Oc1ccc2c(c1)/C(=C/c1nnc(C(C)C)[nH]1)C(=O)N2 [Compound 26, (3Z)-5-isopropoxy-3-[(5-isopropyl-4H-1,2,4-triazol-3-yl)methylene]indolin-2-one]"
2,28,"CC(C)Oc1ccc2c(c1)/C(=C/c1cnc(C3CCOCC3)[nH]1)C(=O)N2 [Compound 30, (3Z)-5-isopropoxy-3-[(2-tetrahydropyran-4-yl-1H-imidazol-5-yl)methylene]indolin-2-one]"
3,150,"O=C1Nc2ccc(Cl)cc2/C1=C/c1cnc(C2CCN(CCF)CC2)[nH]1 [Compound 33, (3Z)-5-chloro-3-[[2-[1-(2-fluoroethyl)-4-piperidyl]-1H-imidazol-5-yl]methylene]indolin-2-one]"
4,24,"CC(C)Oc1cc2c(cc1F)NC(=O)/C2=C\c1cnc(N2CCOCC2)[nH]1 [Compound 37, (3Z)-6-fluoro-5-isopropoxy-3-[(2-morpholino-1H-imidazol-5-yl)methylene]indolin-2-one]"
5,150,"COc1ccc2c(c1)/C(=C/c1cnc(-c3c(F)cccc3F)[nH]1)C(=O)N2 [Compound 20, (3Z)-3-[[2-(2,6-difluorophenyl)-1H-imidazol-5-yl]methylene]-5-methoxy-indolin-2-one]"
6,> 30000,"CCc1nnc(/C=C2\C(=O)Nc3ccc(OC)cc32)[nH]1 [Compound 25, (3Z)-3-[(5-ethyl-4H-1,2,4-triazol-3-yl)methylene]-5-methoxy-indolin-2-one]"
7,25,"CC(C)Oc1cc2c(cc1F)NC(=O)/C2=C\c1cnc(C2CCOCC2)[nH]1 [Compound 41, (3Z)-6-fluoro-5-isopropoxy-3-[(2-tetrahydropyran-4-yl-1H-imidazol-5-yl)methylene]indolin-2-one]"
8,16.5,"CC(C)Oc1ccc2c(c1)/C(=C/c1cnc(C(C)C)[nH]1)C(=O)N2 [Compound 21, (3Z)-5-isopropoxy-3-[(2-isopropyl-1H-imidazol-5-yl)methylene]indolin-2-one]"
9,67,"CC(C)Oc1cc(F)c2c(c1)/C(=C/c1cnc(N3CCOCC3)[nH]1)C(=O)N2 [Compound 36, (3Z)-7-fluoro-5-isopropoxy-3-[(2-morpholino-1H-imidazol-5-yl)methylene]indolin-2-one]"
10,68,"O=C1Nc2ccc(O)cc2/C1=C/c1cnc(C2CCOCC2)[nH]1 [Compound 28, (3Z)-5-hydroxy-3-[(2-tetrahydropyran-4-yl-1H-imidazol-5-yl)methylene]indolin-2-one]"
